What was measured:
[1] = tested on: Rattus norvegicus; test: Anti-inflammatory activity in Rattus norvegicus (rat) assessed as inhibition of carrageenan-induced paw edema at 20 mg/kg, po measured at 30 min post carrageenan-challenge (reference value: 5.1 +/- 0.29%); type: functional; settings: 0.5 h
[2] = tested on: Rattus norvegicus; test: Anti-inflammatory activity in Rattus norvegicus (rat) assessed as inhibition of carrageenan-induced paw edema at 10 mg/kg, po measured at 30 min post carrageenan-challenge (reference value: 5.1 +/- 0.29%); type: functional; settings: 0.5 h
[3] = tested on: Mus musculus; test: Analgesic activity in Mus musculus Wistar albino (mouse) at 20 mg/kg, po after 3 hr by tail-flick test (reference value: 4 +/- 0.91%); type: functional
[4] = tested on: Mus musculus; test: Analgesic activity in Mus musculus Wistar albino (mouse) at 10 mg/kg, po after 3 hr by tail-flick test (reference value: 4 +/- 0.91%); type: functional
[5] = tested on: Mus musculus; test: Analgesic activity in Mus musculus Wistar albino (mouse) at 20 mg/kg, po after 2 hr by tail-flick test (reference value: 4 +/- 0.59%); type: functional
[6] = tested on: Mus musculus; test: Analgesic activity in Mus musculus Wistar albino (mouse) at 10 mg/kg, po after 2 hr by tail-flick test (reference value: 4 +/- 0.59%); type: functional
[7] = tested on: Mus musculus; test: Analgesic activity in Mus musculus Wistar albino (mouse) at 20 mg/kg, po after 1 hr by tail-flick test (reference value: 6 +/- 0.49%); type: functional
[8] = tested on: Mus musculus; test: Analgesic activity in Mus musculus Wistar albino (mouse) at 10 mg/kg, po after 1 hr by tail-flick test (reference value: 6 +/- 0.49%); type: functional
[9] = tested on: Mus musculus; test: Analgesic activity in Mus musculus Wistar albino (mouse) at 20 mg/kg, po after 30 min by tail-flick test (reference value: 2 +/- 0.35%); type: functional
[10] = tested on: Mus musculus; test: Analgesic activity in Mus musculus Wistar albino (mouse) at 10 mg/kg, po after 30 min by tail-flick test (reference value: 2 +/- 0.35%); type: functional
[11] = tested on: Rattus norvegicus; test: Gastrointestinal toxicity in Rattus norvegicus Wistar albino (rat) assessed as ulcer index at 20 mg/kg, ip administered QD for 3 days measured on day 4 (reference value: 0.15 +/- 0.32); type: organism-based; parameters: dose 20 mg/kg, route intraperitoneal; settings: in vivo, 72 h
[12] = tested on: Rattus norvegicus; test: Anti-inflammatory activity in Rattus norvegicus (rat) assessed as inhibition of carrageenan-induced paw edema at 20 mg/kg, po measured at 3 hr post carrageenan-challenge (reference value: 3.2 +/- 0.93%); type: functional
[13] = tested on: Rattus norvegicus; test: Anti-inflammatory activity in Rattus norvegicus (rat) assessed as inhibition of carrageenan-induced paw edema at 10 mg/kg, po measured at 3 hr post carrageenan-challenge (reference value: 3.2 +/- 0.93%); type: functional
[14] = tested on: Rattus norvegicus; test: Anti-inflammatory activity in Rattus norvegicus (rat) assessed as inhibition of carrageenan-induced paw edema at 20 mg/kg, po measured at 2 hr post carrageenan-challenge (reference value: 5.7+/- 0.32%); type: functional
[15] = tested on: Rattus norvegicus; test: Anti-inflammatory activity in Rattus norvegicus (rat) assessed as inhibition of carrageenan-induced paw edema at 10 mg/kg, po measured at 2 hr post carrageenan-challenge (reference value: 5.7+/- 0.32%); type: functional
[16] = tested on: Rattus norvegicus; test: Anti-inflammatory activity in Rattus norvegicus (rat) assessed as inhibition of carrageenan-induced paw edema at 20 mg/kg, po measured at 1 hr post carrageenan-challenge (reference value: 6.1 +/- 0.27%); type: functional
[17] = tested on: Rattus norvegicus; test: Anti-inflammatory activity in Rattus norvegicus (rat) assessed as inhibition of carrageenan-induced paw edema at 10 mg/kg, po measured at 1 hr post carrageenan-challenge (reference value: 6.1 +/- 0.27%); type: functional

Compound | inhibition in vivo at 20 mg/kg [1] | inhibition in vivo at 10 mg/kg [2] | Activity [3] | Activity [4] | Activity [5] | Activity [6] | Activity [7] | Activity [8] | Activity [9] | Activity [10] | UI [11] | inhibition in vivo at 20 mg/kg [12] | inhibition in vivo at 10 mg/kg [13] | inhibition in vivo at 20 mg/kg [14] | inhibition in vivo at 10 mg/kg [15] | inhibition in vivo at 20 mg/kg [16] | inhibition in vivo at 10 mg/kg [17]
O=c1c2ccccc2nc(N/N=C/c2ccccc2[N+](=O)[O-])n1Cc1ccccc1 | 43% | 30% | 38% | 32% | 57% | 46% | 56% | 44% | 49% | 37% | 0.87 | 28% | 21% | 47% | 38% | 43% | 36%
O=c1c2ccccc2nc(N/N=C/c2ccc([N+](=O)[O-])cc2)n1Cc1ccccc1 | 42% | 31% | 39% | 34% | 54% | 42% | 48% | 42% | 46% | 38% | 0.82 | 31% | 24% | 49% | 37% | 45% | 31%
COc1ccc(/C=N/Nc2nc3ccccc3c(=O)n2Cc2ccccc2)cc1 | 35% | 28% | 37% | 32% | 56% | 44% | 52% | 40% | 49% | 39% | 0.83 | 30% | 25% | 44% | 37% | 40% | 30%
Cc1ccccc1/C=N/Nc1nc2ccccc2c(=O)n1Cc1ccccc1 | 45% | 39% | 39% | 32% | 59% | 48% | 58% | 48% | 52% | 44% | 0.66 | 36% | 28% | 51% | 45% | 47% | 42%
Cc1ccc(/C=N/Nc2nc3ccccc3c(=O)n2Cc2ccccc2)cc1 | 46% | 38% | 40% | 35% | 61% | 54% | 59% | 49% | 58% | 47% | 0.65 | 38% | 29% | 53% | 42% | 49% | 38%
O=c1c2ccccc2nc(NN=C(c2ccccc2)c2ccccc2)n1Cc1ccccc1 | 47% | 36% | 41% | 33% | 59% | 49% | 58% | 49% | 55% | 46% | 0.63 | 35% | 27% | 52% | 43% | 50% | 41%
CCN(CC)C(=S)Nn1c(-c2ccccc2)nc2ccccc2c1=O |  |  |  |  | 58% | 44% |  |  |  |  |  |  |  | 53% | 38% |  | 
Cc1nc2ccccc2c(=O)n1NC(=S)n1cccc1 |  |  |  |  | 65% | 50% |  |  |  |  |  |  |  | 60% | 44% |  | 
CCN(CC)C(=S)Nn1c(SC)nc2ccccc2c1=O |  |  |  |  | 67% | 56% |  |  |  |  |  |  |  | 62% | 40% |  | 
O=c1c2ccccc2nc(NN=C2CCCCC2)n1Cc1ccccc1 | 45% | 36% | 41% | 34% | 61% | 54% | 58% | 46% | 51% | 42% | 0.59 | 32% | 25% | 58% | 45% | 52% | 38%
C/C(=N\Nc1nc2ccccc2c(=O)n1Cc1ccccc1)c1ccccc1 | 48% | 40% | 37% | 30% | 69% | 57% | 62% | 47% | 57% | 45% | 0.6 | 33% | 27% | 58% | 46% | 53% | 41%
O=C1Nc2ccccc2/C1=N\Nc1nc2ccccc2c(=O)n1Cc1ccccc1 | 40% | 36% | 35% | 30% | 61% | 48% | 57% | 46% | 52% | 45% | 0.62 | 32% | 25% | 51% | 42% | 45% | 38%
O=c1c2ccccc2nc(N/N=C/c2ccccc2)n1Cc1ccccc1 | 41% | 35% | 41% | 31% | 59% | 48% | 59% | 48% | 51% | 45% | 0.64 | 35% | 27% | 47% | 40% | 45% | 39%
O=c1c2ccccc2nc(N/N=C/c2ccccc2Cl)n1Cc1ccccc1 | 38% | 30% | 35% | 29% | 53% | 41% | 49% | 37% | 46% | 34% | 0.86 | 31% | 26% | 42% | 35% | 38% | 32%
O=c1c2ccccc2nc(N/N=C/c2ccc(Cl)cc2)n1Cc1ccccc1 | 40% | 34% | 36% | 30% | 54% | 47% | 51% | 36% | 49% | 38% | 0.89 | 29% | 23% | 49% | 36% | 44% | 36%
CC(=O)Oc1ccccc1C(=O)O [ASPIRIN] |  |  |  |  |  |  |  |  |  |  | 1.73 |  |  |  |  |  | 

— ChEMBL document CHEMBL3046395, “Synthesis and pharmacological investigation of novel 3-(benzyl)-2-substituted amino-3H-quinazolin-4-ones as analgesic and anti-inflammatory agents” (Med Chem Res, 2008)
